Assays:
HBCx-22 tumor = experiment: Patient-derived xenograft (PDX) study with HBCx-22; format: in vivo, Athymic Nude-Foxn1^nu mice; details: HBCx-22 PDX; for Regressions (%) / TGI (%) D42: Day 42
Description: Female Athymic Nude-Foxn1^nu mice with an established growing HBCx-22 tumor between 108 and 288 mm^3 were randomized into 4 treatment groups of 10 mice each, according to the groups listed in Table 5A, tumor-bearing mice receive estrogen diluted in drinking water (β-estradiol, 8.5 mg/l), from the date of tumor implant to the end of the study. In Table 5A, the abbreviation “p.o.” refers to oral administration, the abbreviation “QD” refers to administration once a day, and the abbreviation “BID” refers to administration twice a day.
Tumors were measured and mice were weighed twice per week during the experimental period. The tumor volume (mm^3) was estimated using the formula: tumor volume (TV)=a×b2/2, where “a” and “b” were the long and the short diameter of a tumor, respectively. The TVs were used to calculate tumor growth inhibition (TGI, an indicator of antitumor activity) using the formula TGI %: (1−{T/T0/Ct/C0}/1−{C0/Ct})×100 where Tt=median tumor volume of treated at time t, T0=median tumor volume of treated at time 0, Ct=median tumor volume of control at time t and C0=median tumor volume of control at time 0. […] Tumor regression represents tumor volume less than the initial tumor volume on D0.
Female Athymic Nude-Foxn1^nu mice with an established growing HBCx-22 tumor between 108 and 288 mm^3 were randomized into 5 treatment groups of 8 mice each, according to the groups listed in Table 6A, tumor-bearing mice receive estrogen diluted in drinking water (β-estradiol, 8.5 mg/l), from the date of tumor implant to the end of the study. In Table 6A, the abbreviation “p.o.” refers to oral administration, the abbreviation “QD” refers to administration once a day, and the abbreviation “BID” refers to administration twice a day.
Tumors were measured and mice were weighed twice per week during the experimental period. The tumor volume (mm^3) was estimated using the formula: tumor volume (TV)=a×b2/2, where “a” and “b” were the long and the short diameter of a tumor, respectively. The TVs were used to calculate tumor growth inhibition (TGI, an indicator of antitumor activity) using the formula TGI %: (1−{T/T0/Ct/C0}/1−{C0/Ct})×100 where Tt=median tumor volume of treated at time t, T0=median tumor volume of treated at time 0, Ct=median tumor volume of control at time t and C0=median tumor volume of control at time 0. […] Robust and statistically significant tumor growth inhibition was observed starting at a dose of 30 mpk with 4/8 as shown in Table 6B. Tumor regression represents tumor volume less than the initial tumor volume at DO.

HBCx-34 tumor = experiment: Patient-derived xenograft (PDX) study with HBCx-34; format: in vivo, Athymic Nude-Foxn1^nu mice; details: HBCx-34 PDX
Description: Female Athymic Nude-Foxn1^nu mice with an established growing HBCx-34 tumor between 108 and 288 mm^3 were randomized into 4 treatment groups of 10 mice each, according to the groups listed in Table 7A, tumor-bearing mice receive estrogen diluted in drinking water (β-estradiol, 8.5 mg/l), from the date of tumor implant to the end of the study. In Table 7A, the abbreviation “p.o.” refers to oral administration, the abbreviation “QD” refers to administration once a day, and the abbreviation “BID” refers to administration twice a day.
Tumors were measured and mice were weighed twice per week during the experimental period. The tumor volume (mm^3) was estimated using the formula: tumor volume (TV)=a×b2/2, where “a” and “b” were the long and the short diameter of a tumor, respectively. The TVs were used to calculate tumor growth inhibition (TGI, an indicator of antitumor activity) using the formula TGI %: (1−{T/T0/Ct/C0}/1−{C0/Ct})×100 where Tt=median tumor volume of treated at time t, T0=median tumor volume of treated at time 0, Ct=median tumor volume of control at time t and C0=median tumor volume of control at time 0. […] Tumor regression represents tumor volume less than the initial tumor volume on DO.
Female Athymic Nude-Foxn1^nu mice with an established growing HBCx-34 tumor between 108 and 288 mm^3 were randomized into 2 treatment groups of 8 mice each, according to the groups listed in Table 8A, tumor-bearing mice receive estrogen diluted in drinking water (β-estradiol, 8.5 mg/l), from the date of tumor implant to the end of the study. In Table 8A, the abbreviation “p.o.” refers to oral administration, the abbreviation “QD” refers to administration once a day.
Tumors were measured and mice were weighed twice per week during the experimental period. The tumor volume (mm^3) was estimated using the formula: tumor volume (TV)=a×b2/2, where “a” and “b” were the long and the short diameter of a tumor, respectively. The TVs were used to calculate tumor growth inhibition (TGI, an indicator of antitumor activity) using the formula TGI %: (1−{T/T0/Ct/C0}/1−{C0/Ct})×100 where Tt=median tumor volume of treated at time t, T0=median tumor volume of treated at time 0, Ct=median tumor volume of control at time t and C0=median tumor volume of control at time 0. […] Tumor regression represents tumor volume less than the initial tumor volume at DO.

[1] = 100 mg/kg twice daily (200 mg/kg/day)
[2] = Compound A study, 30 mg/kg QD p.o.
[3] = Compound A study, 100 mg/kg QD p.o.

## CC(C)C(=O)N1CCN(c2cc(S(=O)(=O)NC3(C#N)CC3)cc3c2cnn3-c2nnc(C(F)F)s2)C[C@H]1C [Compound B]
HBCx-22 tumor; 30 mg/kg QD p.o.
  Regressions (%): 10%
  TGI (%) D42: 58.6%
HBCx-22 tumor; 30 mg/kg once daily
  partial regressions (mice): 1/10
  tumor stabilization: tumor stabilization for all mice
HBCx-22 tumor; 100 mg/kg BID p.o. (200 mg/kg/day)
  TGI (%) D42: 110.4%
HBCx-22 tumor; 100 mg/kg BID p.o.
  Regressions (%): 60%
HBCx-22 tumor; 100 mg/kg QD p.o.
  Regressions (%): 30%
  TGI (%) D42: 97.3%
HBCx-22 tumor; 100 mg/kg once daily
  partial tumor regression (mice): 3/10
HBCx-22 tumor; [1]
  partial tumor regression (mice): 6/10
HBCx-34 tumor; 30 mg/kg QD p.o., Day 35
  Regressions (%): 10%
  TGI (%) D35: 77%
HBCx-34 tumor; 30 mg/kg once daily
  partial regression (mice): 1/10
  tumor stabilization: tumor stabilization for all mice
HBCx-34 tumor; 100 mg/kg BID p.o. (200 mg/kg/day), Day 35
  TGI (%) D35: 106%
HBCx-34 tumor; 100 mg/kg BID p.o., Day 35
  Regressions (%): 80%
HBCx-34 tumor; 100 mg/kg QD p.o., Day 35
  Regressions (%): 80%
  TGI (%) D35: 103%
HBCx-34 tumor; 100 mg/kg once daily
  partial tumor regression (mice): 8/10
HBCx-34 tumor; [1]
  partial tumor regression (mice): 8/10

## C[C@H]1CN(c2cc(S(=O)(=O)NC3(C)CC3)cc3c2cnn3-c2nnc(C(F)F)s2)C[C@H](C)N1 [Compound A, 1-(5-(difluoromethyl)-1,3,4-thiadiazol-2-yl)-4-((3S,5S)-3,5-dimethylpiperazin-1-yl)-N-(1-methylcyclopropyl)-1H-indazole-6-sulfonamide]
HBCx-22 tumor; 3 mg/kg QD p.o.
  Regressions (%): 0%
  TGI (%) D42: 0.1%
HBCx-22 tumor; 10 mg/kg QD p.o.
  Regressions (%): 0%
  TGI (%) D42: 31.8%
HBCx-22 tumor; [2]
  Regressions (%): 50%
  TGI (%) D42: 83.4%
HBCx-22 tumor; [3]
  Regressions (%): 62%
  TGI (%) D42: 108.5%
HBCx-22 tumor; Compound A study, 30 mpk
  tumor regression (mice): 4/8
HBCx-34 tumor; 100 mg/kg QD p.o., Day 45
  Regressions (%): 100%
  TGI (%) D45: 110%
HBCx-34 tumor; Compound A study, 100 mg/kg
  partial regression (mice): all mice achieving partial regression

From patent US20260216174A1, “TREATMENT OF ER+ BREAST CANCER COMPRISING HOMOLOGOUS RECOMBINATION DEFICIENCY USING PARG INHIBITOR” (IDEAYA BIOSCIENCES, INC., priority 2023, published 2026)
